# According to patent publication US20070043093A1, “Glucagon-like peptide-1 receptor agonists, the preparation and the use of the same” (priority 2003, published 2007):
# What was measured:
# GLP-1R [1] = biological target: T1, GLP-1R (Rattus norvegicus, UniProt P32301); assay: Expression of the luciferase report gene in HEK 293/GLP1R+Luc cells; type: cell-based, human; details: for EC50: luciferase report gene, HEK 293/GLP1R+Luc cells, 6 hours
# T1 construct: stably transfected with the expression vector of GLP-1R gene
# T1 sequence (P32301 22-463): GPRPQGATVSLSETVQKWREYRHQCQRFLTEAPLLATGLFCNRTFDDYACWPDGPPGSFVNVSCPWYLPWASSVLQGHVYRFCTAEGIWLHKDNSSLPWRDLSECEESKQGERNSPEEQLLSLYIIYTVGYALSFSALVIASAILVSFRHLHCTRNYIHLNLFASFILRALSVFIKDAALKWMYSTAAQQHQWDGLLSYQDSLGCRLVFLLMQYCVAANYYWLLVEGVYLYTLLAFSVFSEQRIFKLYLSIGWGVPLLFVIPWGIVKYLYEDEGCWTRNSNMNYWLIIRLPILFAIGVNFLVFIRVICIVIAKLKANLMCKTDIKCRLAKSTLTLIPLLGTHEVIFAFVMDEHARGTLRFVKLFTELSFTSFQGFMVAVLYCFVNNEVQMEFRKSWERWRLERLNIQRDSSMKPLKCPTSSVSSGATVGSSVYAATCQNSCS
# Excerpt: Upon that GLP-1R binds to GLP-1 or agonists, its Gasubunit is activated to stimulate the adenylate cyclase, which makes the increase in the concentration of intracellular cAMP. Since the promoter region of the proinsulin gene has the cAMP response element, upon binding of cAMP to this response element, the transcription of the proinsulin gene is activated, so as to increase the sensitivity of -- islet cells to glucose, and improve the expression and secretion of insulin (Diabetes, 2000, vol.49:1156-1164). The screening model employs the human embryonal nephric cell strain which is stably transfected with the expression vector of GLP-1R gene and the expression vector of luciferase report gene under the regulation of cAMP response element, to detect its response to the candidate compound (Cell Biology, 1992, Vol.89: 8641-8645; Proc. Natl. Acad. Sci. U.S.A. 1987, Vol.84: 3434-3438). When screening the candidate compounds, the compound which may induce the luciferase report gene to express have the activity of activating GLP-1.
# Cell strain: HEK 293/GLP1R+Luc strain which stably express GLP-1R and luciferase (National New Medicaments Screening Center)
# HEK 293/GLP1R+Luc cell in 20000 cells/100 μl/well are inoculated into 96-well plate, are cultured at 37[…] overnight with DMEM culture medium containing 10% of fetal calf serum and 500 μg/mL of G418. The candidate compounds wang516-2, wang502, and wang504 are respectively diluted to 2 mM, 1 mM, 0.3 mM, 0.1 mM, 0.03 mM, […], and 0.003 mM, and the other candidate compounds are diluted gradually from 30 mM for 8 times by a ratio of 1:3 to get a concentration gradient (i.e., 30 mM, 10 mM, 3 mM, 1 mM, 0.3 mM, 0.1 mM, 0.03 mM, and 0.01 mM), following by being added into the above 96-well plate at 1 μl/well. Then, the cells are cultured at 37[…] in 5% of CO2for 6 hours. The activity of luciferase is detected according to the specification of Steady-glo™ luciferase analysis system kit, and counting is performed with Victor 2 counting machine. The positive control adopts 30 nM of standard GLP-1.
# GLP-1R [2] = biological target: T1, GLP-1R; assay: Ligand-binding activity, competition with 125I-labelled GLP-1 on HEK 293/GLP1R+Luc cells; design: species or system human; details: for EC50: competition with 125I-labelled GLP-1 (40 pM), 25 °C, 4 hours; for affinity to GLP-1R (in words): receptor-binding experiment, testing concentration range 0.1 nM to 100,000 nM
# Description: In order to determine the binding activity of the compound to the ligand, the cells which highly express GLP-1R are prepared, GLP-1 labelled with ^125I is used as the ligand, while adding into the candidate compound. When the candidate compound binds the ^125I-labelled GLP-1 competitively, the isotope labels on the cell membrane reduce. Accordingly, the affinity of the candidate compound to the ligand can be evaluated (J Mol Endocrinol. 2000 Vol.25:321-35; J Biomol Screen, 2000 Vol. 5:377-84).
# 20 mM of tris-HCl (pH 7.4) (Shanghai Shenggong biological engineering technology LTD), 100 mM of NaCl (Shanghai Chemical agents Cooperation), 15 mM of NaF (Shanghai Chemical agents Cooperation), 2 mM of deoxypyridoxine (Sigma Cooperation), 0.2 mM of phenylmethylsulfonyl fluoride (Sigma Cooperation), aprotinin (Shanghai Chemical agents Cooperation) (1 μg/ml), and leupeptin (Shanghai Chemical agents Cooperation) (1 μg/ml).
# The candidate compound is diluted with dimethyl sulphoxide at the concentration gradient of 0.1 nM, 1 nM, 10 nM, 100 nM, 1000 nM, 10,000 nM, and 100,000 nM.
# 10^5 HEK 293/GLP1R+Luc cells in the logarithmic growth phase are incubated together with the ^125I-labelled GLP-1 positive peptide (the final concentration of 40 pM) in 200 μl of the testing buffer solution at 25 °C for 4 hours, while adding into the non-labeled positive peptide or the candidate compound. The cells are collected with the cell collector, following by washing three times with the washing solution. The scintillation liquid is added into them, and each well is counted with Microbata counter.
# GLP-1R [3] = biological target: T1, GLP-1R; assay: Determination of the concentration of intracellular cAMP; type: cell-based, human
# Excerpt: Since the determination of the concentration of intracellular cAMP indirectly by detecting the expression of the report gene is an indirect process, the functional re-screen is directly performed with the cAMP-detecting kit in order to make sure that the compound can surely increase the concentration of intracellular cAMP.
# HEK 293/GLP1R+Luc strain which stably express GLP-1R and luciferase (National new medicaments screening center)
# HEK 293 cells are inoculated into 96-well plate in 20000 cells/100 μl/well, are cultured at 37[…] overnight. The compound 2f is diluted to 1.00E-03M, 1.00E-04M, 1.00E-05M, 1.00E-06M and 1.00E-07M with dimethyl sulphoxide, following by being inoculated into the above 96-well plate in […] and being cultured at 37 °C with 5% of CO2 for 1 hour. The concentration of intracellular cAMP is detected according to the specification of cAMP-Screen Direct TM system kit.
EC50 (GLP-1R [1]) [µM],EC50 (GLP-1R [2]) [µM],SMILES,further results
6.85,40 to 80,COc1cc(C=C2N=C(c3ccc(NC(=O)C4CCCC4)cc3)OC2=O)ccc1OC(=O)c1cccs1 [wang516],affinity to GLP-1R (in words) (GLP-1R [2]): little week
,> 100,COc1cc(C=C2N=C(c3ccccc3)OC2=O)ccc1OC(=O)c1cccs1 [wang405],
,> 100,COc1cc(C=C2N=C(c3ccc([N+](=O)[O-])cc3)OC2=O)ccc1OC(=O)c1cccs1 [wang450],
5.24,,COc1cc(/C=C2/N=C(c3ccc(NC(=O)C(O)c4ccccc4)cc3)OC2=O)ccc1OC(=O)c1cccs1 (stereo not shown) [wang554],
13,31,CCOc1cc(/C=C2/N=C(c3ccc(NC(C)=O)cc3)OC2=O)ccc1OC(=O)c1cccs1 [2f],"effect of high concentration on cells (cAMP decreasing trend) (GLP-1R [3]; 30 μM and 100 μM): cellulotoxic effect; concentration of cAMP with increase of compound concentration (GLP-1R [3]; 293/GLP-1R cells, 1 hour, FIG. 2): exponential increase; affinity to GLP-1R (in words) (GLP-1R [2]): better affinity"
,> 100,COc1cc(/C=C2/N=C(c3ccc(N)cc3)OC2=O)ccc1OC(=O)c1cccs1 [wang420],
4.87,,COc1cc(/C=C2/N=C(c3ccc(NC(=O)C(C)(C)C)cc3)OC2=O)ccc1OC(=O)c1cccs1 [wang504],
11.6,> 100,COc1cc(/C=C2/N=C(c3ccc(NC(C)=O)cc3)OC2=O)ccc1OC(=O)c1cccs1 [wang462],

# Continued, compound first:
SMILES,EC50 (GLP-1R [1]) [µM],EC50 (GLP-1R [2]) [µM],further results
COc1cc(C=C2N=C(c3ccc(NC(=O)Nc4ccc(C5=NC(=Cc6ccc(OC(=O)c7cccs7)c(OC)c6)C(=O)O5)cc4)cc3)OC2=O)ccc1OC(=O)c1cccs1 [wang866],54.4,> 100,
COc1cc(/C=C2/N=C(c3ccc(NC(=O)c4ccccc4)cc3)OC2=O)ccc1OC(=O)c1cccs1 [wang524],46.5,> 100,
COc1cc(/C=C2/N=C(c3ccc(NC(=O)OC(C)(C)C)cc3)OC2=O)ccc1OC(=O)c1cccs1 [wang520],4.6,60 to 100,"relative activity of luciferase (GLP-1R [1]; final concentration of 30 μM, luciferase activity induced by 30 nM standard GLP-1 regarded as 100%, FIG. 1): 94%; affinity to GLP-1R (in words) (GLP-1R [2]): little week"
COc1cc(/C=C2/N=C(c3ccc(NC(=O)C4CC4)cc3)OC2=O)ccc1OC(=O)c1cccs1 [wang488],6.73,,
COc1cc(/C=C2/N=C(c3ccc(NC(=O)C4CCC4)cc3)OC2=O)ccc1OC(=O)c1cccs1 [wang502],3.31,,
